# Test results: US7649022B2, “Bioabsorbable elastomeric polymer networks, cross-linkers and methods of use” (priority 2007, dated 2010)
# Test: Properties and self-adherence of films of PEA 4-Phe-4 mixed with EAC-2 cross-linkers, dry and after 24 h in water
# Type: physicochemical
# Design: key to Self-adherence: (—) means: no self-adherence observed
# Conditions: for Self-adherence: folded film in water 24 hours; for Dry: dry film; for Wet: pre-soaked in water at room temperature 24 hours
# Description: At the first stage, this Example addresses the question of whether invention cross-linking agents can be used as plasticizers without causing the composition to undesirably adhere to the surface of other materials (for example, steel, and other medical device surfaces).
SMILES,Self-adherence (PEA 4-Phe-4/EAC-2 40/60 w/w),Dry (PEA 4-Phe-4/EAC-2 60/40 w/w),Self-adherence (PEA 4-Phe-4/EAC-2 60/40 w/w),Wet (PEA 4-Phe-4/EAC-2 60/40 w/w),Dry (PEA 4-Phe-4/EAC-2 80/20 w/w),Self-adherence (PEA 4-Phe-4/EAC-2 80/20 w/w),Dry (PEA 4-Phe-4/EAC-2 40/60 w/w)
"C=C(C)C(=O)N[C@@H](Cc1ccccc1)C(=O)OCCCCCCOC(=O)[C@H](Cc1ccccc1)NC(=O)C(=C)C [Phe-6-MA, dimethacrylate of bis(L-Phe)-1,6-hexanediol diester]",—,Hard,—,Elastic,Hard,—,
CC(C)CC(NC(=O)C=Cc1ccccc1)C(=O)OCCCCCCOC(=O)C(CC(C)C)NC(=O)C=Cc1ccccc1 (stereo not shown) [Leu-6-CA],—,Elastic,—,,,—,
O=C(C=Cc1ccccc1)NC(Cc1ccccc1)C(=O)OCCCCCCOC(=O)C(Cc1ccccc1)NC(=O)C=Cc1ccccc1 (stereo not shown) [Phe-6-CA],—,Brittle,—,Elastic,Hard,—,Brittle
C=C(C)C(=O)NC(CC(C)C)C(=O)OCCCCCCOC(=O)C(CC(C)C)NC(=O)C(=C)C (stereo not shown) [Leu-6-MA],—,,—,,,—,
C=CC(=O)NC(CC(C)C)C(=O)OCCCCCCOC(=O)C(CC(C)C)NC(=O)C=C (stereo not shown) [Leu-6-AA],—,,—,Brittle,Hard,—,
